In US20260317320A1, “C5AR1 ANTAGONISTS AND USES THEREOF” (Vanqua Bio, Inc., priority 2022, published 2026):
Like-named read-outs stand apart in the source and are kept apart here.

Key:
[1] = target: T1, complement C5a receptor 1 (C5aR1) (Homo sapiens, UniProt P21730); assay: β-arrestin recruitment via C5aR1 activation in live CHO-K1 cells (PathHunter), antagonist mode; format: cell-based; conditions: antagonist mode; recombinant hC5a (EC90) as competing natural agonist; live CHO-K1 cells; read-out: [Antagonist] B-arrestin2 recruitment: Average IC50
T1 construct: β-galactosidase fragment (PathHunter enzyme complementation); host or cells: CHO-K1 (PathHunter CHO-K1 C5aR1 β-arrestin cell line)
T1 sequence (P21730 1-350): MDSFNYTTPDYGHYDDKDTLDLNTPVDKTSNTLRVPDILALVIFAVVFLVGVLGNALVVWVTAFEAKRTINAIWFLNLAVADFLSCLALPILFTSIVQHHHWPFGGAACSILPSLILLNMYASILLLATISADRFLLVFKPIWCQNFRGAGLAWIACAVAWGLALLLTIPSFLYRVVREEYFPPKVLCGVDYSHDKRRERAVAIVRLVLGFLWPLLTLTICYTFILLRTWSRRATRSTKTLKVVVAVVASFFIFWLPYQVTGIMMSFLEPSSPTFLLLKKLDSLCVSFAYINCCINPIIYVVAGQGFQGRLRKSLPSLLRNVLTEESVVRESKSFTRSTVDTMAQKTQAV
Outline: (§1)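 β-arrestin recruitment to C5aR1 in CHO-K1 cells is detected by enzyme-fragment complementation. Antagonism is measured against recombinant hC5a at its EC90; agonism is measured with compound alone. Potencies are grouped into IC50 categories.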

[2] = target: T1, complement C5a receptor 1 (C5aR1); assay: β-arrestin recruitment via C5aR1 activation in live CHO-K1 cells (PathHunter), agonist mode; format: cell-based
Outline: as §1

## Cc1ccnc(F)c1N1CCC(c2cc3nccnc3n(Cc3ncccc3C(F)(F)F)c2=O)CC1 [compound 127, 7-(1-(2-Fluoro-4-methylpyridin-3-yl)piperidin-4-yl)-5-((3-(trifluoromethyl)pyridin-2-yl)methyl)pyrido[2,3-b]pyrazin-6(5H)-one]
[1]
  IC50: < 500 nM
[2]
  [Agonist] B-arrestin2 recruitment: Average EC50 (nM): Non-Active

## Cc1ccnc(F)c1N1CCC(c2cc3nccnc3n(Cc3nccnc3C)c2=O)CC1 [compound 128, 7-(1-(2-Fluoro-4-methylpyridin-3-yl)piperidin-4-yl)-5-((3-methylpyrazin-2-yl)methyl)pyrido[2,3-b]pyrazin-6(5H)-one]
[1]
  IC50: 5000 to 100000 nM
[2]; at 10 μM
  [Agonist] B-arrestin2 recruitment: Average EC50 (nM): Non-Active at 10 μM

## Cc1ccnc(F)c1N1CCC(c2cc3nccnc3n(Cc3nccnc3C(F)(F)F)c2=O)CC1 [compound 129, 7-(1-(2-Fluoro-4-methylpyridin-3-yl)piperidin-4-yl)-5-((3-(trifluoromethyl)pyrazin-2-yl)methyl)pyrido[2,3-b]pyrazin-6(5H)-one]
[1]
  IC50: < 500 nM
[2]
  [Agonist] B-arrestin2 recruitment: Average EC50 (nM): Non-Active

## Cc1cnc2cc(C3CCN(c4c(C)ccnc4F)CC3)c(=O)n(Cc3nccnc3C(F)(F)F)c2n1 [compound 130, 7-(1-(2-Fluoro-4-methylpyridin-3-yl)piperidin-4-yl)-3-methyl-5-((3-(trifluoromethyl)pyrazin-2-yl)methyl)pyrido[2,3-b]pyrazin-6(5H)-one]
[1]
  IC50: < 500 nM
[2]
  [Agonist] B-arrestin2 recruitment: Average EC50 (nM): Non-Active

## Cc1cnc2cc(C3CCN(c4ncsc4C)CC3)c(=O)n(Cc3ncccc3C(F)(F)F)c2n1 [compound 131]
[1]
  IC50: < 500 nM
[2]
  [Agonist] B-arrestin2 recruitment: Average EC50 (nM): Non-Active

## Cc1cnc2cc(C3CCN(c4nncs4)CC3)c(=O)n(Cc3ncccc3C(F)(F)F)c2n1 [compound 132, 7-(1-(1,3,4-Thiadiazol-2-yl)piperidin-4-yl)-3-methyl-5-((3-(trifluoromethyl)pyridin-2-yl)methyl)pyrido[2,3-b]pyrazin-6(5H)-one]
[1]
  IC50: > 100000 nM
[2]
  [Agonist] B-arrestin2 recruitment: Average EC50 (nM): Non-Active

## Cc1cnc2cc(C3CCN(c4c(C)ccnc4F)CC3)c(=O)n(Cc3ncccc3C(F)(F)F)c2n1 [compound 133, 7-(1-(2-Fluoro-4-methylpyridin-3-yl)piperidin-4-yl)-3-methyl-5-((3-(trifluoromethyl)pyridin-2-yl)methyl)pyrido[2,3-b]pyrazin-6(5H)-one]
[1]
  IC50: < 500 nM
[2]
  [Agonist] B-arrestin2 recruitment: Average EC50 (nM): Non-Active

## Cc1cnc2cc(C3CCN(c4c(C)ccnc4F)CC3)c(=O)n(Cc3nccnc3C)c2n1 [compound 134, 7-(1-(2-Fluoro-4-methylpyridin-3-yl)piperidin-4-yl)-3-methyl-5-((3-methylpyrazin-2-yl)methyl)pyrido[2,3-b]pyrazin-6(5H)-one]
[1]
  IC50: < 500 nM
[2]; at 10 μM
  [Agonist] B-arrestin2 recruitment: Average EC50 (nM): Non-Active at 10 μM

## Cc1cccc(F)c1N1CCC(c2nc3ccccc3n(Cc3nccnc3C(F)(F)F)c2=O)CC1 [compound 136, 3-(1-(2-Fluoro-6-methylphenyl)piperidin-4-yl)-1-((3-(trifluoromethyl)pyrazin-2-yl)methyl)quinoxalin-2(1H)-one]
[1]
  IC50: > 100000 nM
[2]
  [Agonist] B-arrestin2 recruitment: Average EC50 (nM): Non-Active

## Cc1cnc2cc(C3CCN(c4c(C)cccc4F)CC3)c(=O)n(Cc3ncccc3C(F)F)c2n1 [compound 138, 5-((3-(Difluoromethyl)pyridin-2-yl)methyl)-7-(1-(2-fluoro-6-methylphenyl)piperidin-4-yl)-3-methylpyrido[2,3-b]pyrazin-6(5H)-one]
[1]
  IC50: < 500 nM
[2]
  [Agonist] B-arrestin2 recruitment: Average EC50 (nM): Non-Active

## Cc1cccc(F)c1N1CCC(c2nc3ccccc3n(Cc3ncccc3C(F)(F)F)c2=O)CC1 [compound 139, 3-(1-(2-Fluoro-6-methylphenyl)piperidin-4-yl)-1-((3-(trifluoromethyl)pyridin-2-yl)methyl)quinoxalin-2(1H)-one]
[1]
  IC50: > 100000 nM
[2]; at 10 μM
  [Agonist] B-arrestin2 recruitment: Average EC50 (nM): Non-Active at 10 μM

## Cc1cnc2cc(N3CCN(c4c(C)cccc4F)CC3)c(=O)n(Cc3ncccc3C(F)F)c2n1 [compound 140, 5-((3-(Difluoromethyl)pyridin-2-yl)methyl)-7-(4-(2-fluoro-6-methylphenyl)piperazin-1-yl)-3-methylpyrido[2,3-b]pyrazin-6(5H)-one]
[1]
  IC50: < 500 nM
[2]; at 10 μM
  [Agonist] B-arrestin2 recruitment: Average EC50 (nM): Non-Active at 10 μM

## Cc1cnc2cc(C3CCN(c4c(C)ccnc4F)CC3)c(=O)n(Cc3ncccc3C(F)F)c2n1 [compound 141, 5-((3-(Difluoromethyl)pyridin-2-yl)methyl)-7-(1-(2-fluoro-4-methylpyridin-3-yl)piperidin-4-yl)-3-methylpyrido[2,3-b]pyrazin-6(5H)-one]
[1]
  IC50: < 500 nM
[2]
  [Agonist] B-arrestin2 recruitment: Average EC50 (nM): Non-Active

## Cc1cnc2cc(C3CCN(c4cnsc4C)CC3)c(=O)n(Cc3ncccc3C(F)(F)F)c2n1 [compound 145, 3-Methyl-7-(1-(5-methylisothiazol-4-yl)piperidin-4-yl)-5-((3-(trifluoromethyl)pyridin-2-yl)methyl)pyrido[2,3-b]pyrazin-6(5H)-one]
[1]
  IC50: < 500 nM
[2]
  [Agonist] B-arrestin2 recruitment: Average EC50 (nM): Non-Active

## Cc1cnc2cc(C3CCN(c4nccnc4C)CC3)c(=O)n(Cc3ncccc3C(F)(F)F)c2n1 [compound 151, 3-Methyl-7-(1-(3-methylpyrazin-2-yl)piperidin-4-yl)-5-((3-(trifluoromethyl)pyridin-2-yl)methyl)pyrido[2,3-b]pyrazin-6(5H)-one]
[1]
  IC50: 500 to 5000 nM
[2]; at 10 μM
  [Agonist] B-arrestin2 recruitment: Average EC50 (nM): Non-Active at 10 μM

## Cc1cnc2cc([C@H]3CC[C@H](c4c(C)cccc4F)CC3)c(=O)n(Cc3ncccc3OC(F)(F)F)c2n1 [compound 152, 7-((1r,4r)-4-(2-Fluoro-6-methylphenyl)cyclohexyl)-3-methyl-5-((3-(trifluoromethoxy)pyridin-2-yl)methyl)pyrido[2,3-b]pyrazin-6(5H)-one]
[1]
  IC50: < 500 nM
[2]
  [Agonist] B-arrestin2 recruitment: Average EC50 (nM): Non-Active

## Cc1cnc2cc(C3CCN(c4nccnc4C)CC3)c(=O)n(Cc3ncccc3OC(F)(F)F)c2n1 [compound 153, 3-Methyl-7-(1-(3-methylpyrazin-2-yl)piperidin-4-yl)-5-((3-(trifluoromethoxy)pyridin-2-yl)methyl)pyrido[2,3-b]pyrazin-6(5H)-one]
[1]
  IC50: 500 to 5000 nM
[2]; at 10 μM
  [Agonist] B-arrestin2 recruitment: Average EC50 (nM): Non-Active at 10 μM

## Cc1cnc2cc(C3CCN(c4ncccc4C(F)F)CC3)c(=O)n(Cc3ncccc3C(F)(F)F)c2n1 [compound 154, 7-(1-(3-(Difluoromethyl)pyridin-2-yl)piperidin-4-yl)-3-methyl-5-((3-(trifluoromethyl)pyridin-2-yl)methyl)pyrido[2,3-b]pyrazin-6(5H)-one]
[1]
  IC50: < 500 nM
[2]; at 10 μM
  [Agonist] B-arrestin2 recruitment: Average EC50 (nM): Non-Active at 10 μM

## Cc1cccc(F)c1N1CCC(c2cc3nccnc3n(Cc3nccnc3OC(F)F)c2=O)CC1 [compound 155, 5-((3-(Difluoromethoxy)pyrazin-2-yl)methyl)-7-(1-(2-fluoro-6-methylphenyl)piperidin-4-yl)pyrido[2,3-b]pyrazin-6(5H)-one]
[1]
  IC50: < 500 nM
[2]; at 10 μM
  [Agonist] B-arrestin2 recruitment: Average EC50 (nM): Non-Active at 10 μM

## Cc1cnc2cc(C3CCN(c4nccnc4C(F)(F)F)CC3)c(=O)n(Cc3ncccc3C(F)(F)F)c2n1 [compound 156, 3-Methyl-7-(1-(3-(trifluoromethyl)pyrazin-2-yl)piperidin-4-yl)-5-((3-(trifluoromethyl)pyridin-2-yl)methyl)pyrido[2,3-b]pyrazin-6(5H)-one]
[1]
  IC50: 500 to 5000 nM
[2]; at 10 μM
  [Agonist] B-arrestin2 recruitment: Average EC50 (nM): Non-Active at 10 μM

## Cc1cnc2cc(C3CCN(c4cccnc4C(F)(F)F)CC3)c(=O)n(Cc3ncccc3C(F)(F)F)c2n1 [compound 157, 3-Methyl-5-((3-(trifluoromethyl)pyridin-2-yl)methyl)-7-(1-(2-(trifluoromethyl)pyridin-3-yl)piperidin-4-yl)pyrido[2,3-b]pyrazin-6(5H)-one]
[1]
  IC50: 500 to 5000 nM
[2]; at 10 μM
  [Agonist] B-arrestin2 recruitment: Average EC50 (nM): Non-Active at 10 μM

## Cc1cnc2cc([C@H]3CC[C@H](c4nccs4)CC3)c(=O)n(Cc3ncccc3C(F)(F)F)c2n1 [compound 158, 3-Methyl-7-((1r,4r)-4-(thiazol-2-yl)cyclohexyl)-5-((3-(trifluoromethyl)pyridin-2-yl)methyl)pyrido[2,3-b]pyrazin-6(5H)-one]
[1]
  IC50: 500 to 5000 nM
[2]; at 10 μM
  [Agonist] B-arrestin2 recruitment: Average EC50 (nM): Non-Active at 10 μM

## Cc1cccc(F)c1N1CCC(c2cc3nccnc3n(Cc3nccn(C(F)F)c3=O)c2=O)CC1 [compound 159, 5-((4-(Difluoromethyl)-3-oxo-3,4-dihydropyrazin-2-yl)methyl)-7-(1-(2-fluoro-6-methylphenyl)piperidin-4-yl)pyrido[2,3-b]pyrazin-6(5H)-one]
[1]
  IC50: 5000 to 100000 nM
[2]; at 10 μM
  [Agonist] B-arrestin2 recruitment: Average EC50 (nM): Non-Active at 10 μM

## Cc1cnc2cc(C3CCN(c4cnccc4C(F)F)CC3)c(=O)n(Cc3ncccc3C(F)(F)F)c2n1 [compound 162, 7-(1-(4-(Difluoromethyl)pyridin-3-yl)piperidin-4-yl)-3-methyl-5-((3-(trifluoromethyl)pyridin-2-yl)methyl)pyrido[2,3-b]pyrazin-6(5H)-one]
[1]
  IC50: < 500 nM
[2]
  [Agonist] B-arrestin2 recruitment: Average EC50 (nM): Non-Active
